# Reference: patent US11839610B2 (priority 2022, dated 2023)
# Read-outs that look alike come from different tables or passages of the source.
# How the values were obtained:
# [1] = tested on: Delta S protein pseudovirus (nCoV-S-Luc-B.1.617.2) in ACE2-293T cells; assay: microbe, parasite or virus in culture; assay type: cell-based; settings: for Levels of viral infection, Delta, Ave.: luciferase activity, Control group as 100%; for IC50: read-out: 50% inhibitory concentrations (IC50) for viral infection, Delta, alkaloid compounds, n = 3
# [2] = tested on: Omicron S protein pseudovirus (nCoV-S-Luc-B.1.1.529) in ACE2-293T cells; assay: microbe, parasite or virus in culture; assay type: cell-based; settings: read-out: 50% inhibitory concentrations (IC50) for viral infection, Omicron
Compound,"Levels of viral infection, Delta, Ave. ([1]; Conc. 0.1 μM)","Levels of viral infection, Delta, Ave. ([1]; Conc. 1 μM)","Levels of viral infection, Delta, Ave. ([1]; Conc. 10 μM)",IC50 [1],IC50 [2],Cell Viability (%) (ACE2-293T cells),cytotoxic to the ACE2-293T cells (in words) (ACE2-293T cells),"Levels of viral infection, Delta, Ave. ([1]; Conc. 5 μM)",IC50 ([1]; Pseudovirus),IC50 ([2]; Pseudovirus),Cell Viability (%) (ACE2-293T cells; human)
COc1cc2c3cc1Oc1c4c(cc5c1[C@H](Cc1ccc(cc1)Oc1cc(ccc1O)C[C@H]3N(C)CC2)N(C)CC5)OCO4 [Cepharanoline],89.65%,64.01%,−3.64%,1.64 ± 0.18 µM,1.31 ± 0.07 µM,97.24 ± 0.87%,caused no damages,,,,
COc1ccc2cc1Oc1ccc(cc1)C[C@H]1c3cc(c(OC)cc3CCN1C)Oc1c(O)c(OC)cc3c1[C@H](C2)N(C)CC3 [Fangchinoline],,64.54%,7.13%,,,,caused no damages,27.89%,1.82 ± 0.02 µM,1.44 ± 0.06 µM,95.56 ± 2.82%
Cycleanine,118.65%,88.48%,−3.84%,2.21 ± 0.5 µM,0.53 ± 0.03 µM,,,,,,
